According to patent US8158776B2, “P2Y6 receptor agonists for treating lung diseases” (Inspire Pharmaceuticals, Inc., priority 2005, dated 2012):

Legend:
Format in all cases: cell-based
[1] = molecular target: T1, P2Y6 (Homo sapiens, UniProt Q15077); assay: Intracellular calcium mobilization (FLIPR, Fluo-3 AM) in 1321N1 cells expressing P2Y6; conditions: 1321N1 cells expressing P2Y6, intracellular calcium
T1 construct: expressed in transfected cells; host or cells: human astrocytoma 1321N1 cells
T1 sequence (Q15077 whole entry, species assumed): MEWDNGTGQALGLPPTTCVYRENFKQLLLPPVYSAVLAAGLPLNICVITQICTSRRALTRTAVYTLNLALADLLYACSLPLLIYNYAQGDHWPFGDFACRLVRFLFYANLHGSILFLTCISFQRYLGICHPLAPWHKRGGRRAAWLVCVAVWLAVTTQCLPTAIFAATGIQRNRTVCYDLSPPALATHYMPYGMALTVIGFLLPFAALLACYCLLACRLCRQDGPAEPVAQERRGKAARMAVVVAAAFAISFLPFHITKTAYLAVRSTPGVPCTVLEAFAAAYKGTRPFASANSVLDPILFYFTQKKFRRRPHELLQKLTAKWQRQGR
Method: (§1) Human astrocytoma (1321N1) cells expressing P2Y1, P2Y2, P2Y4, and P2Y6 were grown to confluency in 96-well plates. Cells were loaded with a solution of Fluo-3 AM (2.5 μM final concentration) in an assay buffer consisting of 10 mM KCl, 118 mM NaCl, 2.5 mM CaCl2, 1 mM MgCl2, 20 mM HEPES, 10 mM glucose, pH 7.4. After a 60-minute incubation with Fluo-3 AM at 25° C., cells were washed and stimulated with serially diluted concentrations of compounds uridine 5′-diphosphate (UDP), P^1, P^3-(diuridine 5′-)triphosphate (UP3U) or P^1-(2′,3′-benzylacetal uridine 5′-)P^3-(uridine 5′-)triphosphate (mono-benzylacetal UP3U). Intracellular calcium levels were monitored in each well simultaneously by measuring the changes in fluorescence intensity using the FLIPR (Molecular Devices Corp., Sunnyvale, Calif.). Values for compounds UDP, UP3U, and mono-benzylacetal UP3U in Table 1 are presented as EC50 values corresponding to the concentration of an agonist that produces 50% of the maximum possible response.

[2] = molecular target: T2, P2Y1 (Homo sapiens, UniProt P47900); assay: Intracellular calcium mobilization (FLIPR, Fluo-3 AM) in 1321N1 cells expressing P2Y1; conditions: 1321N1 cells expressing P2Y1, intracellular calcium
T2 construct: expressed in transfected cells; host or cells: human astrocytoma 1321N1 cells
T2 sequence (P47900 whole entry, species assumed): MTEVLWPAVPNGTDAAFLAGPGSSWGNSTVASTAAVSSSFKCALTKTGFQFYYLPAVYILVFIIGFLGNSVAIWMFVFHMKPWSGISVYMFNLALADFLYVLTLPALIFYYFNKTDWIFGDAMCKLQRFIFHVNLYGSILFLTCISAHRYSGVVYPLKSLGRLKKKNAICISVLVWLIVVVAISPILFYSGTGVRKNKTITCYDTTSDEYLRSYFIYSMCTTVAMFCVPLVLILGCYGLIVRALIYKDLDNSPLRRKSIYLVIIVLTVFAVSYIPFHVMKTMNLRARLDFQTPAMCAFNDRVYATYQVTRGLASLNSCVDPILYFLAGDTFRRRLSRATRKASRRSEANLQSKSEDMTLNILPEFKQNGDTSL
Method: as §1

[3] = molecular target: T3, P2Y4 (Homo sapiens, UniProt P51582); assay: Intracellular calcium mobilization (FLIPR, Fluo-3 AM) in 1321N1 cells expressing P2Y4; conditions: 1321N1 cells expressing P2Y4, intracellular calcium
T3 construct: expressed in transfected cells; host or cells: human astrocytoma 1321N1 cells
T3 sequence (P51582 whole entry, species assumed): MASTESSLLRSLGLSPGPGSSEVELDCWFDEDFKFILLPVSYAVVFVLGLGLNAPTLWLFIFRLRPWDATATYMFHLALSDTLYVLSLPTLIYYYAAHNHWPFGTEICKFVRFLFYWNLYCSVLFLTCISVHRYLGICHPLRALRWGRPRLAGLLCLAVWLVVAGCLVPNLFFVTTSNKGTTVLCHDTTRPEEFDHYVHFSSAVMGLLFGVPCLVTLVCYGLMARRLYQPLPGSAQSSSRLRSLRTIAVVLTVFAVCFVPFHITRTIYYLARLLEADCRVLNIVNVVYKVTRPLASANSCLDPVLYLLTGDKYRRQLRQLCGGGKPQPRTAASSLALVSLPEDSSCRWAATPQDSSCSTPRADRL
Method: as §1

[4] = molecular target: T4, P2Y2 (Homo sapiens, UniProt P41231); assay: Intracellular calcium mobilization (FLIPR, Fluo-3 AM) in 1321N1 cells expressing P2Y2; conditions: 1321N1 cells expressing P2Y2, intracellular calcium
T4 construct: expressed in transfected cells; host or cells: human astrocytoma 1321N1 cells
T4 sequence (P41231 whole entry, species assumed): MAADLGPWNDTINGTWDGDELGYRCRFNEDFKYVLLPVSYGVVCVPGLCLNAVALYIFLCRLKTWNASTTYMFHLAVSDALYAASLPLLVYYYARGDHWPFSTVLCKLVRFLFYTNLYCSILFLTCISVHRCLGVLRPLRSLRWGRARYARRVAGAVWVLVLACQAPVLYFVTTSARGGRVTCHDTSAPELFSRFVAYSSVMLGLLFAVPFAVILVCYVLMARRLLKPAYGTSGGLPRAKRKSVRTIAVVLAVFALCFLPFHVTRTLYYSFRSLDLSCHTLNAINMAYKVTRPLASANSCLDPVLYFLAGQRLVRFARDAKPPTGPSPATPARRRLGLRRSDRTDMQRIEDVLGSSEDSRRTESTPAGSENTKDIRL
Method: as §1

| EC50 [1] | EC50 [2] | EC50 [3] | EC50 [4] | Compound |
| --- | --- | --- | --- | --- |
| 0.92 µM | > 100 µM | > 100 µM | 13 µM | O=c1ccn([C@@H]2O[C@H](COP(=O)(O)OP(=O)(O)OP(=O)(O)OC[C@H]3O[C@@H](n4ccc(=O)[nH]c4=O)[C@H](O)[C@@H]3O)[C@@H](O)[C@H]2O)c(=O)[nH]1 [UP3U, P^1, P^3-(diuridine 5′-)triphosphate] |
| 0.5 µM | > 100 µM | 9.48 µM | 4.2 µM | O=c1ccn([C@@H]2O[C@H](COP(=O)(O)OP(=O)(O)O)[C@@H](O)[C@H]2O)c(=O)[nH]1 [UDP, uridine 5′-diphosphate] |
| 0.14 µM | > 100 µM | > 100 µM | > 100 µM | O=c1ccn([C@@H]2O[C@H](COP(=O)(O)OP(=O)(O)OP(=O)(O)OC[C@@H]3O[C@H](n4ccc(=O)[nH]c4=O)C4OC(Cc5ccccc5)OC43)C(O)C2O)c(=O)[nH]1 (stereo partly drawn) [mono-benzylacetal UP3U, P^1-(2′,3′-benzylacetaluridine 5′-)P^3-(uridine 5′-)triphosphate] |
